Laboratory results taken from US20240252674A1, “AGENTS FOR DIRECTED CONJUGATION TECHNIQUES AND CONJUGATED PRODUCTS” (Biohaven Therapeutics Ltd., priority 2021, published 2024).
Like-named read-outs stand apart in the source and are kept apart here. Where no end group is shown, it is not given here.

Experiments:
IgG = experiment: Binding of peptide IgG binder (directing group) to IgG; details: Kd of the directing group included in the peptide IgG binder
Immunoglobulin G [1] = target: Immunoglobulin G
Immunoglobulin G [2] = target: Immunoglobulin G; remark: listed apart in the source

Kd (IgG) [nM]	Molecule	further results
15	DCAWXLGELVWCT peptide [cyclic peptide IgG binder]	–
–	cyclic peptide IgG binder (DCAWXLGELVWCT peptide)	Kd (Immunoglobulin G [1]): 15 nM
600	GSYWYDVWF peptide [linear peptide IgG binder]	–
–	GSYWYDVWF (not fully specified) [linear peptide IgG binder (… peptide)]	Kd (Immunoglobulin G [2]): 600 nM
